Laboratory results: US20020177616A1, “Use of chromans” (priority 2001, published 2002)
Counter-ions that a name gives are not always drawn.

Legend:
MPTP-monkey model = experiment: chronic MPTP monkey model of Parkinson's disease; type: in vivo, rhesus monkeys (Macaca fascicularis); parameters: key to Slowing of the development of Parkinsonism: 0 = No slowing of the development of parkinsonism; + = Statistically significant delay in the attainment of Score 8; conditions: for Symptomatology on the last 3 days: MPTP only group = 100%
[1] = biological target: T1, human recombinant 5-HT1A receptors (Homo sapiens, UniProt P08908); experiment: GTP gamma[S-35] binding, agonistic action on human recombinant 5-HT1A receptors; type: biochemical; conditions: for EC50: GTP gamma[S-35] binding, human recombinant 5-HT1A receptors
T1 sequence (P08908 1-422): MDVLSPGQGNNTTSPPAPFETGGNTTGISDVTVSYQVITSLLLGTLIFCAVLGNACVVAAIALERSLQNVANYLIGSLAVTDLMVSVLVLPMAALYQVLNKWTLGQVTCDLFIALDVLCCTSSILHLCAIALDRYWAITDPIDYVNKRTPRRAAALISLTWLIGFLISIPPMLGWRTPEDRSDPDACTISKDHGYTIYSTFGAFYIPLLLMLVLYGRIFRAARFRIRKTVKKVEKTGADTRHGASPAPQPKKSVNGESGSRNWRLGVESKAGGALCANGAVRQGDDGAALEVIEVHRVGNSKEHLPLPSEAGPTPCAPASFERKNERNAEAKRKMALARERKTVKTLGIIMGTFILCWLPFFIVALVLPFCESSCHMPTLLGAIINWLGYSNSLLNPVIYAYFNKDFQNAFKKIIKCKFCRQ
Procedure: Determination of the Avonistic action on Human Recombinant 5-HT1A Receptors
Signal transduction studies were carried out on human recombinant 5-HT1A receptors using the guanosine 5′-O-(3-[S-35]thio)-triphosphate (GTP gamma[S-35]) binding technique (modified according to Elliott and Reynolds Europ J. Pharmacol 1999, 386, 313-315 and Sim et al. J. Neurosci 1996, 16, 8057-8066).

CC(C)Oc1cccc2c1O[C@@H](CNCCCCN1C(=O)c3ccccc3S1(=O)=O)CC2 [Example 11, 2-[4-({[(2R)-8-isopropoxy-chroman-2-yl]methyl}amino)butyl]-1,2-benzisothiazol-3(2H)-one 1,1-dioxide hydrochloride]
neuroprotective activity after oral administration (MPTP-monkey model; 1 mg/kg p.o. bid): slowed the development of the parkinsonism symptoms
reduction of the degree of severity of the symptoms (symptomatic action) compared with control (MPTP-monkey model; 1 mg/kg p.o. bid): 22%
Slowing of the development of Parkinsonism (MPTP-monkey model; MPTP 0.2 mg/kg i.v. daily + 1.0 mg/kg p.o. bid): +
Symptomatology on the last 3 days (MPTP-monkey model; MPTP + 1.0 mg/kg p.o. bid): 78%
potency relative to repinotan hydrochloride ([1]; 5-HT1A agonism, from EC50 values): approximately twice
EC50 [1]: 0.19 nM

Cl.O=C1c2ccccc2S(=O)(=O)N1CCCCNC[C@H]1CCc2ccccc2O1 [Repinotan hydrochloride, 2-[4-({[(2R)-chroman-2-yl]methyl}amino)butyl]-1,2-benzisothiazol-3(2H)-one 1,1-dioxide hydrochloride, reference compound]
neuroprotective activity after oral administration (MPTP-monkey model; 2 mg/kg p.o. bid): slowed the development of the parkinsonism symptoms
symptomatic action (MPTP-monkey model; 2 mg/kg p.o. bid): not observed
Slowing of the development of Parkinsonism (MPTP-monkey model; MPTP 0.2 mg/kg i.v. daily + 2.0 mg/kg p.o. bid): +
Symptomatology on the last 3 days (MPTP-monkey model; MPTP + 2.0 mg/kg p.o. bid): 100%
EC50 [1]: 0.51 nM
